# Data taken from US11369565B2, “Amino-pyrimidine skeletal muscle modulators” (Cytokinetics, Inc., priority 2010, dated 2022).
# Tested on: rabbit skeletal myofibrils (approximately 90% fast fibers)
# Assay: Activation of fast skeletal myofibrils (PUMA coupled-enzyme ATPase assay at pCa25)
# Format: biochemical
# Settings: concentration at which the compound increased the enzymatic activity by 40%; calcium at pCa25; PM12 buffer pH 6.8
# Experimental: Preparation of fast skeletal myofibrils. Rabbit skeletal myofibrils were prepared based upon the method of Herrmann et al. (Biochem. 32(28):7255-7263(1993). Myofibrils were prepared from rabbit psoas muscle purchased from Pel-Freez Biologicals (Arkansas) within 2 days of ordering, stored on ice. Minced muscle was homogenized in 10 volumes of ice-cold “standard” buffer (50 mM Tris, pH 7.4, 0.1 M potassium acetate, 5 mM KCl, 2 mM DTT, 0.2 mM PMSF, 10 μM leupeptin, 5 μM pepstatin, and 0.5 mM sodium azide) containing 5 mM EDTA and 0.5% Triton X-100 using an Omni-Macro homogenizer. Myofibrils were recovered by low speed centrifugation (3000 rpm for 10 minutes) and washed 2 times in the Triton X-100 containing buffer to ensure removal of cellular membrane. Following the Triton washes, myofibrils were washed 3 times in “standard” buffer containing 2 mM magnesium acetate. A final wash in assay buffer (12 mM PIPES, pH 6.8, 60 mM KCl, 1 mM DTT) was performed and brought to 10% sucrose for flash freezing in liquid nitrogen and storage at −80° C.
# Activation of Fast Skeletal Myofibrils. Fast fiber activators were identified by measuring the enzymatic activity of muscle myofibril preparations using the proprietary PUMA™ (see, e.g., U.S. Pat. Nos. 6,410,254, 6,743,599, 7,202,051, and 7,378,254) assay system. Myofibril preparations consisted of rabbit skeletal muscle (approximately 90% fast fibers) that had been mechanically homogenized and washed with a detergent (triton X-100) to remove cellular membranes. This preparation retained all of the sarcomeric components in a native conformation and the enzymatic activity was still regulated by calcium. Compounds were tested using a myofibril suspension and a level of calcium sufficient to increase enzymatic activity of the myofibrils to 25% of their maximal rate (termed pCa25). Enzymatic activity was tracked via a pyruvate kinase and lactate dehydrogenase-coupled enzyme system. This assay regenerates myosin-produced ADP into ATP by oxidizing NADH, producing an absorbance change at 340 nm. The buffering system was 12 mM Pipes, 2 mM MgCl2, 1 mM DTT at pH 6.8 (PM12 buffer).
row,Mean AC1.4,Compound
1,D (D=>20 uM),"CCOC(=O)c1cc2cnc(NCC3(c4ncccc4F)CCC3)nc2s1 [ethyl 2-({[(3-fluoro-2-pyridyl)cyclobutyl]methyl}amino) thiopheno[2,3-d]pyrimidine-6-carboxylate]"
2,A (A=<1 uM),NC(=O)c1ccc(F)c(-c2cnc(NCC3(c4ccccn4)CCC3)nc2)c1 [4-fluoro-3-(2-{[(2-pyridylcyclobutyl]methyl]amino}pyrimidin-5-yl)benzamide]
3,D (D=>20 uM),O=C(Nc1ccccc1)c1ccnc(NCC2(c3ncccc3F)CCC2)n1 [[2-({[(3-fluoro(2-pyridyl))cyclobutyl]methyl}amino)pyrimidin-4-yl]-N-benzamide]
4,B (B=1-10 uM),CC(C)(Nc1ncc(-c2cc(C(N)=O)no2)cn1)c1ncccc1Cl [5-(2-{[1-(3-chloro(2-pyridyl))-isopropyl]amino}pyrimidin-5-yl)isoxazole-3-carboxamide]
5,D (D=>20 uM),Clc1cccnc1C1(CNc2ncccn2)CCC1 [{[(3-chloro(2-pyridyl))cyclobutyl]methyl}pyrimidin-2-ylamine]
6,D (D=>20 uM),"CC(C)(Nc1ncc(-c2ncc(CN)s2)cn1)c1ncccc1F [{5-[5-(aminomethyl)(1,3-thiazol-2-yl)]pyrimidin-2-yl}[1-(3-fluoro(2-pyridyl))-isopropyl]amine]"
7,B (B=1-10 uM),CNC(=O)c1ccc(O)c(-c2cnc(NCC3(c4ncccc4F)CCC3)nc2)c1 [{3-[2-({[(3-fluoro(2-pyridyl))cyclobutyl]methyl}amino)pyrimidin-5-yl]-4-hydroxyphenyl}-N-methylcarboxamide]
8,D (D=>20 uM),"COc1ncc(-c2cnc(NC[C@]3(c4ncccc4F)C[C@H](F)C3)nc2)c(OC)n1 [[5-(2,4-dimethoxypyrimidin-5-yl)pyrimidin-2-yl]{[3-fluoro-1-(3-fluoro(2-pyridyl))cyclobutyl]methyl}amine]"
9,C (C=10-20 uM),CC(C)(Nc1ncc(Br)cn1)c1ccc(F)cc1 [(5-bromopyrimidin-2-yl)[1-(4-fluorophenyl)-isopropyl]amine]
10,D (D=>20 uM),COc1nc(N(C)C[C@]2(c3ncccc3F)C[C@H](F)C2)ncc1-c1ccccc1 [{[3-fluoro-1-(3-fluoro(2-pyridyl))cyclobutyl]methyl}(4-methoxy-5-phenylpyrimidin-2-yl)methylamine]
11,D (D=>20 uM),CC(=O)Nc1ccccc1-c1cnc(NC[C@]2(c3ncccc3F)C[C@H](F)C2)nc1 [N-{2-[2-({[3-fluoro-1-(3-fluoro(2-pyridyl))cyclobutyl]methyl}amino)pyrimidin-5-yl]phenyl}acetamide]
12,D (D=>20 uM),"CC(C)(CNc1ncc2c(n1)CCNC2)c1ccc(F)cc1 [[2-(4-fluorophenyl)-2-methylpropyl]-5,6,7,8-tetrahydropyridino[4,3-d]pyrimidin-2-ylamine]"
13,B (B=1-10 uM),Nc1cnc(-c2cnc(NC[C@]3(c4ncccc4F)C[C@H](F)C3)nc2)cn1 [[5-(5-aminopyrazin-2-yl)pyrimidin-2-yl]{[3-fluoro-1-(3-fluoro(2-pyridyl))cyclobutyl]methyl}amine]
14,D (D=>20 uM),"Fc1ccc(C2(Nc3ncc4cn[nH]c4n3)CCC2)cc1 [[(4-fluorophenyl)cyclobutyl]pyrazolo[5,4-d]pyrimidin-6-ylamine]"
15,D (D=>20 uM),CC(C)(CNC(=O)c1cnc(NCC(C)(C)c2ccc(F)cc2)nc1)c1ccc(F)cc1 [N-[2-(4-fluorophenyl)-2-methylpropyl](2-{[2-(4-fluorophenyl)-2-methylpropyl]amino}pyrimidin-5-yl)carboxamide]
16,D (D=>20 uM),CC(C)(CNc1ncc(Br)cn1)c1ccc(F)cc1 [5-Bromo-N-(2-(4-fluorophenyl)-2-methylpropyl)pyrimidin-2-amine]
17,B (B=1-10 uM),CNC(=O)c1ccn(-c2cnc(NC[C@]3(c4ncccc4F)C[C@H](F)C3)nc2)c1 [{1-[2-({[3-fluoro-1-(3-fluoro(2-pyridyl))cyclobutyl]methyl}amino)pyrimidin-5-yl]pyrro1-3-yl}-N-methylcarboxamide]
18,A (A=<1 uM),[5-(2-{[1-(3-chloro(2-pyridyl))- isopropyl}amino}pyrimidin-5-yl)(1H- indazol-3-yl)]methylsulfonyl)amine
19,B (B=1-10 uM),CC(C)(CNc1ncc(-c2ccc3[nH]c(=O)[nH]c3c2)cn1)c1ccc(F)cc1 [5-(2-{[2-(4-fluorophenyl)-2-methylpropyl]amino}pyrimidin-5-yl)-3-hydrobenzimidazol-2-one]
20,B (B=1-10 uM),COc1nc(NC[C@]2(c3ncccc3F)C[C@@H](F)C2)ncc1-c1ccccc1 [{[3-fluoro-1-(3-fluoro(2-pyridyl))cyclobutyl]methyl)(4-methoxy-5-phenylpyrimidin-2-yl)amine]

# Continued, compound first:
row,Compound,Mean AC1.4
1,O=C(O)c1cccc(-c2cnc(NC[C@]3(c4ncccc4F)C[C@H](F)C3)nc2O)c1 [3-[2-({[3-fluoro-1-(3-fluoro(2-pyridyl))cyclobutyl]methyl}amino)-4-hydroxypyrimidin-5-yl] benzoic acid],D (D=>20 uM)
2,"CC(C)(Nc1ncc(-c2ncc(C(N)=O)s2)cn1)c1ncccc1Cl [2-(2-{[1-(3-chloro(2-pyridyl))-isopropyl]amino}pyrimidin-5-yl)-1,3-thiazole-5-carboxamide]",B (B=1-10 uM)
3,Nc1ncc(-c2cnc(NC[C@]3(c4ncccc4F)C[C@H](F)C3)nc2)[nH]c1=O [3-amino-6-[2-({[3-fluoro-1-(3-fluoro(2-pyridyl))cyclobutyl]methyl}amino)pyrimidin-5-yl] hydropyrazin-2-one],B (B=1-10 uM)
4,CC(C)(Nc1ncc(-c2cc(C(N)=O)ccn2)cn1)c1ncccc1Cl [2-(2-{[1-(3-chloro(2-pyridyl))-isopropyl]amino}pyrimidin-5-yl)pyridine-4-carboxamide],B (B=1-10 uM)
5,CC(C)(Nc1ncc(-c2cc(C(N)=O)ccc2F)cn1)c1ncccc1Cl [3-(2-{[1-(3-chloro(2-pyridyl))-isopropyl]amino}pyrimidin-5-yl)-4-fluorobenzamide],A (A=<1 uM)
6,"CC(C)[C@H](Nc1ncc(-c2ncc(C#N)s2)cn1)c1ncccc1Cl [2-(2-{[(1S)-1-(3-chloro(2-pyridyl))-2-methylpropyl]amino}pyrimidin-5-yl)-1,3-thiazole-5-carbonitrile]",D (D=>20 uM)
7,"CC(C)(C)OC(=O)NCc1cnc(-c2cnc(NCC3(c4ncccc4F)CCC3)nc2)s1 [(tert-butoxy)-N-({2-[2-({[(3-fluoro(2-pyridyl))cyclobutyl]methyl}amino)pyrimidin-5-yl](1,3-thiazol-5-yl)}methyl)carboxamide]",B (B=1-10 uM)
8,NC(=O)c1cnn(-c2cnc(NCC3(c4ncccc4F)CCC3)nc2)c1 [1-[2-({[(3-fluoro-2-pyridyl)cyclobutyl]methyl}amino)pyrimidin-5-yl] pyrazole-4-carboxamide],B (B=1-10 uM)
9,CC(C)(Nc1ncc(-c2cc(C(N)=O)ccc2F)cn1)c1ncccc1F [4-fluoro-3-(2-{[1-(3-fluoro(2-pyridyl))-isopropyl]amino}pyrimidin-5-yl)benzamide],B (B=1-10 uM)
10,NC(=O)c1cccc(-c2cnc(NC[C@]3(c4ncccc4F)C[C@H](F)C3)nc2)c1O [3-[2-({[3-fluoro-1-(3-fluoro(2-pyridyl))cyclobutyl]methyl)amino)pyrimidin-5-yl]-2-hydroxybenzamide],A (A=<1 uM)
11,C[S+]([O-])c1ccccc1C(C)(C)Nc1ncc(-c2cccc(C(N)=O)c2)cn1 (stereo not drawn) [3-(2-(2-(2-(methylsulfinyl)phenyl)propan-2-ylamino)pyrimidin-5-yl)benzamide],D (D=>20 uM)
12,N#Cc1cnc(NC2(c3ncccc3F)CCC2)nc1 [2-{[(3-fluoro-2-pyridyl)cyclobutyl]amino} pyrimidine-5-carbonitrile],D (D=>20 uM)
13,NC(=O)c1ccnc(-c2cnc(NC[C@]3(c4ncccc4F)C[C@H](F)C3)nc2)c1 [2-[2-({[3-fluoro-1-(3-fluoro(2-pyridyl))cyclobutyl]methyl}amino)pyrimidin-5-yl]pyridine-4-carboxamide],B (B=1-10 uM)
14,NC(=O)c1ccccc1-c1cnc(NC[C@]2(c3ncccc3F)C[C@H](F)C2)nc1 [2-[2-({[3-fluoro-1-(3-fluoro(2-pyridyl))cyclobutyl]methyl}amino)pyrimidin-5-yl]benzamide],C (C=10-20 uM)
15,"NC(=O)Cc1cnc(-c2cnc(NCC3(c4ncccc4Cl)CCC3)nc2)s1 [2-{2-[2-({[(3-chloro-2-pyridyl)cyclobutyl]methyl}amino)pyrimidin-5-yl]-1,3-thiazol-5-yl}acetamide]",A (A=<1 uM)
16,COc1cccnc1C(C)(C)Nc1ncc(-c2cc(C(N)=O)ccc2F)cn1 [4-fluoro-3-(2-{[1-(3-methoxy(2-pyridyl))-isopropyl]amino}pyrimidin-5-yl)benzamide],C (C=10-20 uM)
